Measured values published in PubChem BioAssay AID2060498 (Molecular Pharmacology Branch, DTP, NCI, 2025).

Test system: 171881-019-R-J1-PDC tumor spheroids, viability
Assay: Anticancer human tumor 171881-019-R-J1-PDC patient-derived invasive breast carcinoma cell line growth inhibition [GQUAD]
Settings: spheroids with HUVEC and MSC; for IC50: curve of first compound; for viability, T/C: stronger effect = lower value
Outline: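 Viability of tumor cells grown as complex spheroids with endothelial and stromal cells, exposed to drug combinations. Top concentration at or near clinical Cmax (else 10 microM), diluted in half-log increments.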

[1] = second compound 0.0316 µM, first compound 0.0316 µM
[2] = second compound 0.0316 µM, first compound 0.1 µM
[3] = second compound 0.0316 µM, first compound 0.316 µM
[4] = second compound 0.0316 µM, first compound 1 µM
[5] = second compound 0.0316 µM, first compound 3.16 µM
[6] = second compound 0.0316 µM, first compound 10 µM
[7] = second compound 0.1 µM, first compound 0.0316 µM
[8] = second compound 0.1 µM, first compound 0.1 µM
[9] = second compound 0.1 µM, first compound 0.316 µM
[10] = second compound 0.1 µM, first compound 1 µM
[11] = second compound 0.1 µM, first compound 3.16 µM
[12] = second compound 0.1 µM, first compound 10 µM
[13] = second compound 0.316 µM, first compound 0.0316 µM
[14] = second compound 0.316 µM, first compound 0.1 µM
[15] = second compound 0.316 µM, first compound 0.316 µM
[16] = second compound 0.316 µM, first compound 1 µM
[17] = second compound 0.316 µM, first compound 3.16 µM
[18] = second compound 0.316 µM, first compound 10 µM
[19] = second compound 1 µM, first compound 0.0316 µM
[20] = second compound 1 µM, first compound 0.1 µM
[21] = second compound 1 µM, first compound 0.316 µM
[22] = second compound 1 µM, first compound 1 µM
[23] = second compound 1 µM, first compound 3.16 µM
[24] = second compound 1 µM, first compound 10 µM
[25] = second compound 3.16 µM, first compound 0.0316 µM
[26] = second compound 3.16 µM, first compound 0.1 µM
[27] = second compound 3.16 µM, first compound 0.316 µM
[28] = second compound 3.16 µM, first compound 1 µM
[29] = second compound 3.16 µM, first compound 3.16 µM
[30] = second compound 3.16 µM, first compound 10 µM
[31] = second compound 10 µM, first compound 0.0316 µM
[32] = second compound 10 µM, first compound 0.1 µM
[33] = second compound 10 µM, first compound 0.316 µM
[34] = second compound 10 µM, first compound 1 µM
[35] = second compound 10 µM, first compound 3.16 µM
[36] = second compound 10 µM, first compound 10 µM
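For viability, T/C in this document: 100% = DMSO vehicle control viability.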

SMILES: CC1COCCN1c1cc(-c2ccnn2C)c2ccnc(-c3ccn[nH]3)c2n1 (centres undefined) + CN(C)c1ccc(Nc2c3ccc(NC(=O)CCN4CCCC4)cc3nc3cc(NC(=O)CCN4CCCC4)ccc23)cc1
- IC50 (second compound 0.0316 µM): 65.2 nM
- IC50 (second compound 0.1 µM): 51.9 nM
- IC50 (second compound 0.316 µM): 40.8 nM
- IC50 (second compound 1 µM): < 31.6 nM
- IC50 (second compound 3.16 µM): < 31.6 nM
- IC50 (second compound 10 µM): < 31.6 nM
- viability, T/C [1]: 76.9%
- viability, T/C [2]: 34.1%
- viability, T/C [3]: 12.4%
- viability, T/C [4]: 5.31%
- viability, T/C [5]: 1.79%
- viability, T/C [6]: 1.42%
- viability, T/C [7]: 64.8%
- viability, T/C [8]: 30.4%
- viability, T/C [9]: 11.6%
- viability, T/C [10]: 5.34%
- viability, T/C [11]: 1.93%
- viability, T/C [12]: 1.63%
- viability, T/C [13]: 55.2%
- viability, T/C [14]: 31.6%
- viability, T/C [15]: 10.3%
- viability, T/C [16]: 3.25%
- viability, T/C [17]: 1.4%
- viability, T/C [18]: 1.07%
- viability, T/C [19]: 20.7%
- viability, T/C [20]: 8.28%
- viability, T/C [21]: 4.88%
- viability, T/C [22]: 1.45%
- viability, T/C [23]: 0.66%
- viability, T/C [24]: 0.48%
- viability, T/C [25]: 1.59%
- viability, T/C [26]: 1.01%
- viability, T/C [27]: 0.89%
- viability, T/C [28]: 0.34%
- viability, T/C [29]: 0.71%
- viability, T/C [30]: 0.14%
- viability, T/C [31]: 0.16%
- viability, T/C [32]: 0.3%
- viability, T/C [33]: 0.33%
- viability, T/C [34]: 0.32%
- viability, T/C [35]: 0.43%
- viability, T/C [36]: 0.14%

SMILES: CC1COCCN1c1cc(C2(O)CC3CCC(C2)O3)c2cnn(-c3ccn[nH]3)c2n1 (centres undefined) + CN(C)c1ccc(Nc2c3ccc(NC(=O)CCN4CCCC4)cc3nc3cc(NC(=O)CCN4CCCC4)ccc23)cc1
- IC50 (second compound 0.0316 µM): < 31.6 nM
- IC50 (second compound 0.1 µM): < 31.6 nM
- IC50 (second compound 0.316 µM): < 31.6 nM
- IC50 (second compound 1 µM): < 31.6 nM
- IC50 (second compound 3.16 µM): < 31.6 nM
- IC50 (second compound 10 µM): < 31.6 nM
- viability, T/C [1]: 48%
- viability, T/C [2]: 16.6%
- viability, T/C [3]: 5.6%
- viability, T/C [4]: 1.83%
- viability, T/C [5]: 1.12%
- viability, T/C [6]: 0.76%
- viability, T/C [7]: 47.5%
- viability, T/C [8]: 15.7%
- viability, T/C [9]: 5.27%
- viability, T/C [10]: 1.88%
- viability, T/C [11]: 1.2%
- viability, T/C [12]: 1.32%
- viability, T/C [13]: 41.9%
- viability, T/C [14]: 13.6%
- viability, T/C [15]: 4.24%
- viability, T/C [16]: 1.41%
- viability, T/C [17]: 1.02%
- viability, T/C [18]: 0.73%
- viability, T/C [19]: 12.1%
- viability, T/C [20]: 4.72%
- viability, T/C [21]: 2.23%
- viability, T/C [22]: 0.4%
- viability, T/C [23]: 0.33%
- viability, T/C [24]: 0.3%
- viability, T/C [25]: 1.34%
- viability, T/C [26]: 0.9%
- viability, T/C [27]: 0.41%
- viability, T/C [28]: 0.14%
- viability, T/C [29]: 0.16%
- viability, T/C [30]: 0.2%
- viability, T/C [31]: 0.14%
- viability, T/C [32]: 0.25%
- viability, T/C [33]: 0.42%
- viability, T/C [34]: 0.25%
- viability, T/C [35]: 0.16%
- viability, T/C [36]: 0.14%
